Experimental data taken from US7485651B2, “Compounds with activity on muscarinic receptors” (Acadia Pharmaceuticals, Inc., priority 1998, dated 2009).

Target: T1, m5 receptor (Homo sapiens, UniProt P08912)
T1 construct: expressed in transfected cells; host or cells: NIH 3T3 (ATCC CRL 1658)
T1 sequence (P08912 1-532): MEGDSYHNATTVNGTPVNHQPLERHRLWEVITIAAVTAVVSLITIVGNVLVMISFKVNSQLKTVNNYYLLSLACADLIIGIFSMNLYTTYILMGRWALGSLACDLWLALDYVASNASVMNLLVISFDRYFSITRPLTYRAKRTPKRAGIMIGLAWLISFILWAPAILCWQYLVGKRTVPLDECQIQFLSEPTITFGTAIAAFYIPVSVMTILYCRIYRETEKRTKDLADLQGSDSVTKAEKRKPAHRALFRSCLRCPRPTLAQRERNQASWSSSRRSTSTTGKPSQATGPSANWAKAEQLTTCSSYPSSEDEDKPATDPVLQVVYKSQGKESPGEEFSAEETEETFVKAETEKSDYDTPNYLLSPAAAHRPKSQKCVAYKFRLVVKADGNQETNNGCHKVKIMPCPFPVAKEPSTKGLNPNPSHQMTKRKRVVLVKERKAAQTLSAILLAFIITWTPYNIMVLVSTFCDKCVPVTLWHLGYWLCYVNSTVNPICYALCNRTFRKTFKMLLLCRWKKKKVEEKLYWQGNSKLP
Assay: R-SAT / NIH 3T3 cells transfected with m5 muscarinic receptor
Type: cell-based
Text: A particularly convenient functional assay system is the receptor selection and amplification assay disclosed in U.S. Pat. No. 5,707,798 describing a method of screening for bioactive compounds by utilizing the ability of cells transfected with receptor DNA, e.g. coding for the different muscarinic subtypes, to amplify in the presence of a ligand of the receptor. Cell amplification is detected as increased levels of a marker also expressed by the cells.
Transfection of cells with muscarinic receptor DNAs (general procedure) NIH 3T3 cells (available from the American Type Culture Collection as ATCC CRL 1658) were grown at 37° C. in a humidified atmosphere (5% CO2) incubator in Dulbecco's modified Eagle's medium (DMEM) supplemented with 4.5 g/l glucose, 4 mM glutamine, 50 units/m1 penicillin, 50 units/m1 streptomycin (available from Advanced Biotechnologies, Inc., Gaithersburg, Md.) and 10% calf serum (available from Sigma, St. Louis, […].). The cells were treated with trypsin-EDTA, spun down and plated at 2×10^6 per 15 cm dish in 20 m1 of DMEM containing 10% calf serum.
The m1-m5 muscarinic receptor subtypes were cloned substantially as described by Bonner et al., Science 237, 1987, p. 527, and Bonner et al., Neuron 1, 1988, p. 403. For the m2 and m4 receptors, the cells were co-transfected with DNA encoding a chimera between the Gq protein and the five carboxy-terminal amino acids of the Gi protein (the Gq-i5 construct is described by Conklin et al., Nature 363, 1993, p.274).
On day one, the cells were transfected using the Superfect transfection reagent (available from Qiagen, Valencia, Calif.) in accordance with the manufacturer's instructions. Receptor DNA, β-gal DNA (pSI-β-galactosidase available from Promega, Madison, Wis.), chimeric Gq-i5 DNA for the m2 and m4 receptor subtype assays, and salmon sperm DNA (available from Sigma, St. Louis, […].) as filler to a total of 20 μg DNA was added per plate. Prior to addition to the plates, 60 μl Superfect was added to the DNA and mixed thoroughly by pipetting up and down several times. The mixture was incubated at room temperature for 10-15 minutes. The media were aspirated, and 12 ml fresh DMEM containing 10% calf serum and 50 units/m1 penicillin/streptomycin was added to the plates. The DNA-Superfect solution was mixed once more with a pipette and added to the plate which was swirled to distribute the DNA mixture evenly over the surface. The cells were incubated overnight at 37° C. and 5% CO2. After incubation, the media were aspirated and the plates were rinsed once with a 15 m1 volume of Hank's Buffered Saline. The plates were swirled to ensure thorough rinsing. 20 m1 fresh DMEM supplemented with 10% calf serum and 50 units/m1 penicillin/streptomycin was added to the plates. The cells were incubated for 24-48 hours until the plates were 100% confluent.
Assay of NIH 3T3 cells transfected with muscarinic receptor subtypes (general procedure) DMEM containing 2% Cyto-SF3 was heated at 37° C. in a water bath under sterile conditions. Sterile working stock solutions of test compounds to be assayed were prepared by diluting the compounds in DMEM to 8× the final concentration for testing. The compound (carbachol) to be included in the assay as a positive control was also diluted in DMEM to 8× the final concentration. 50 μL of the DMEM containing 2% Cyto-SF3 was added to each well of 96-well microtiter plates under sterile conditions. Then, 16 of compound solutions were added to the top wells of the plates, and dilution of the solutions was performed by taking 16 μl of the compound solutions from the top wells and pipetting them into the next row of wells. This procedure was repeated with each subsequent row of wells, except that 50 μl medium alone was added to the baseline control wells (the wells that contain medium and cells, but not test compounds) and plate control wells (wells containing medium, but not test compounds and cells). […]

CCCCC1CCN(CCCC(=O)c2ccccc2C)CC1 [Compound A, 4-n-Butyl-1-[4-(2-methylphenyl)-4-oxo-1-butyl]piperidine]
agonist activity at the m5 receptor: only activated the m1 receptor subtype
Emax at 1.5 µM (NIH3T3, m5, compound at 1.5 μM, maximum = response to 10 μM carbachol, read-out: Cellular response as a percentage of the maximum response of the cells): 3%
antagonism of carbachol-induced responses (m5): not an antagonist
